Assay [1] has as its system Lymnaea. Description: Inhibition of acetylcholinesterase from nerve tissue of Lymnaea acuminata at 0.23 ug w/v relative to control. The arrangement: scale not given: the % may be the effect or the level left.
Assay [2] deals with Lymnaea. The experiment in a line: In vivo inhibition of acetylcholinesterase from nerve tissue of Lymnaea acuminata at 14 mg/L relative to control. The class given is functional. Further details: scale not given: the % may be the effect or the level left.
Assay [3] deals with Lymnaea. The experiment in a line: Inhibition of acetylcholinesterase from nerve tissue of Lymnaea acuminata at 2 ug w/v relative to control. Further details: scale not given: the % may be the effect or the level left.
Assay [4] relates to Lymnaea. The experiment in a line: In vivo inhibition of acetylcholinesterase from nerve tissue of Lymnaea acuminata at 27 mg/L relative to control. Further details: scale not given: the % may be the effect or the level left. The class given is functional.
Assay [5] relates to Lymnaea. The experiment in a line: Inhibition of acetylcholinesterase from nerve tissue of Lymnaea acuminata at 0.75 ug w/v relative to control. The arrangement: scale not given: the % may be the effect or the level left.
Assay [6] concerns Lymnaea. Description: Inhibition of acetylcholinesterase from nerve tissue of Lymnaea acuminata at 1 ug w/v relative to control. Further details: scale not given: the % may be the effect or the level left.
Assay [7] concerns Lymnaea. Description: In vivo inhibition of acetylcholinesterase from nerve tissue of Lymnaea acuminata at 2.5 mg/L relative to control. Further details: scale not given: the % may be the effect or the level left. The class given is functional.
Assay [8] relates to Lymnaea. Description: Molluscicidal activity against Lymnaea acuminata within 24 hrs. The class given is functional.
Assay [9] has as its system Lymnaea. The experiment in a line: In vivo inhibition of acetylcholinesterase from nerve tissue of Lymnaea acuminata at 30 mg/l relative to control. The class given is functional. Further details: scale not given: the % may be the effect or the level left.
In assay [10] the test system is Lymnaea. The experiment in a line: Inhibition of acetylcholinesterase from nerve tissue of Lymnaea acuminata at 0.5 ug w/v relative to control. Further details: scale not given: the % may be the effect or the level left.

The record followed here is ChEMBL document CHEMBL1151621, “Correlation of the anticholinesterase and molluscicidal activity of the latex of Euphorbia royleana on the snail Lymnaea acuminata” (1984).

In the case of `CNC(=O)Oc1ccc2c(c1)[C@]1(C)CCN(C)[C@@H]1N2C`, the Activity in the assay with Lymnaea [1] is 13%.
For the compound `CNC(=O)Oc1cccc2ccccc12` [CARBARIL], the Activity in the assay with Lymnaea [2] amounted to 73%; in the assay on Lymnaea [3] it was 67%.
For `COP(=S)(OC)SCC(=O)N(C)C=O` [FORMOTHION], the Activity with Lymnaea [4] worked out at 79%; with Lymnaea [5], 47%.
Consider `CNC(=O)Oc1cc(C)c(N(C)C)c(C)c1` [MEXACARBATE], for which the Activity with Lymnaea [6] came out at 39%; in the assay on Lymnaea [7], 53%.
Turning to `O=C(Nc1ccc([N+](=O)[O-])cc1Cl)c1cc(Cl)ccc1O` [NICLOSAMIDE], the Activity with Lymnaea [8] is given as 63%.
On to `CCOP(=S)(OCC)SCSCC` [PHORATE], for which the Activity with Lymnaea [9] was 67%; with Lymnaea [10], 42%.
